What all share (assay type): cell-based
Assay [1] deals with Candida albicans ATCC44858. Description: microbe, parasite or virus in culture. Conditions: Candida albicans, ATCC44858; CLSI broth microdilution, visual, duplicate; read-out: MIC. As to the method: (§1) Antifungal potency of the test article(s) was measured using the in vitro broth microdilution assay under test conditions described by the Clinical and Laboratory Standards Institute. Minimum Inhibitory Concentration (MIC) is defined as the lowest concentration of an agent that causes a specified reduction in visible growth of the microorganism. Minimum Effective Concentration (MEC) is defined as the lowest concentration of an agent that leads to the growth of small, rounded, compact hyphal forms, as compared to the hyphal growth typically seen in the growth control well. MIC values were determined for 9 Candida spp., and MEC values were determined for filamentous fungus species (Aspergillus fumigatus and Trichophyton rubrum). Details of the test article preparations and methodologies are described in Supplementary Material S1.
(§2) Following incubation, the test plates were visually examined and wells were scored for growth or complete growth inhibition to define the MIC values. Microscopy examination was used to determine the MEC values. Each test substance was evaluated in duplicate and the results are the duplicate test values. Vehicle-control and an active reference agent were used as blank and positive controls, respectively. […]
(§3) S1. In Vitro Testing, Test Article Preparations
(§4) The 5 mg/mL stock solution was prepared as the following. The refrigerated vial was equilibrated to room temperature. Test vial was reconstituted aseptically with 10.5 mL 0.9% NaCl. The powder was dissolved completely, mixing until a clear solution was ob-tained. The final concentration was 5.0 mg/mL of caspofungin freebase. The reconstituted solution was stable for 1 hr at room temperature. The 5 mg/mL stock solution was then […]
(§5) The refrigerated vial was equilibrated to room temperature. The powder was dis-solved completely, mixing until a clear solution was obtained. Test vial was reconstituted aseptically with 1.8 mL 0.9% NaCl. The white to off-white powder was dissolved com-pletely, mixing gently until a clear solution was obtained. The final concentration was 5.0 mg/mL of caspofungin freebase. The reconstituted solution was used within 1 hr at room temperature. The 5 mg/mL stock solution was then diluted with 0.9% NaCl to prepare the […]
(§6) 1.3. Caspofungin Diacetate
(§7) The 5 mg/mL API stock solution was prepared as the following. The refrigerated vial was equilibrated to room temperature. Test vial was filled aseptically with 1.8 mL 0.9%
(§8) NaCl. The powder was dissolved completely, mixing until a clear solution was obtained.
(§9) The final concentration was 5.0 mg/mL of caspofungin freebase. The reconstituted solu-tion was used within 1 hr at room temperature. The 5 mg/mL stock solution was then […]
(§10) g compound, corresponding to 1.2 mg active compound with a correction factor of 2.40 was added 0.375 mL of water for injection to generate the 3.2 mg/mL working stock solution for testing. The 3.2 mg/mL working stock solution was 2-fold diluted seri-ally in 0.9% NaCl to prepare a total of eleven 50-fold stock solutions, concentrations rang-ing from 3.2 to 0.003 mg/mL. A 4 μL aliquot of each dilution was added to 196 μL of broth medium seeded with the organism suspension in wells of a 96 well plate (fungal cell count: 1 x 10^3 to 1 x 10^4 colony forming units per mL). The final volume was 200 μL in each […]
A general note: Broth dilution looks for growth in wells or tubes with falling amounts of substance.

In assay [2] the test system is Candida albicans ATCC90028 + 50%human serum. In words: microbe, parasite or virus in culture. Conditions: Candida albicans, ATCC90028, CLSI broth microdilution, duplicate, read-out: MIC. As for the experimental part: as §1, §2, §3, §4, §5, §6, §7, §8, §9, §10
The test system of assay [3] is Candida albicans ATCC90028. Description: microbe, parasite or virus in culture. Conditions: Candida albicans, ATCC90028; CLSI broth microdilution, visual, duplicate; read-out: MIC. As for the experimental part: as §1, §2, §3, §4, §5, §6, §7, §8, §9, §10
Assay [4] has as its system Candida albicans Azole-R (20183.073). In words: microbe, parasite or virus in culture. Conditions: Candida albicans; CLSI broth microdilution, azole-resistant strain, duplicate; read-out: MIC. As for the experimental part:
as §1, §2, §3, §4, §5, §6, §7, §8, §9, §10

In assay [5] the test system is Candida albicans Azole-R (20186.025). Description: microbe, parasite or virus in culture. Conditions: Candida albicans. As to the method: as §1, §2, §3, §4, §5, §6, §7, §8, §9, §10
Assay [6] concerns Candida glabrata ATCC 36583. Description: microbe, parasite or virus in culture. Conditions: Nakaseomyces glabratus, ATCC36583; CLSI broth microdilution, duplicate; read-out: MIC. As to the method:
as §1, §2, §3, §4, §5, §6, §7, §8, §9, §10

The test system of assay [7] is Candida krusei ATCC 6258. In words: microbe, parasite or virus in culture. Conditions: Pichia kudriavzevii, ATCC6258; CLSI broth microdilution, duplicate; read-out: MIC. As for the experimental part:
as §1, §2, §3, §4, §5, §6, §7, §8, §9, §10

For assay [8], the system named is Candida parapsilosis ATCC 22019. In words: microbe, parasite or virus in culture. Conditions: Lodderomyces parapsilosis, ATCC22019; CLSI broth microdilution, duplicate; read-out: MIC. As to the method:
as §1, §2, §3, §4, §5, §6, §7, §8, §9, §10

Assay [9] relates to Candida tropicalis ATCC 200956. In words: microbe, parasite or virus in culture. Conditions: Candida tropicalis, ATCC200956; CLSI broth microdilution, duplicate; read-out: MIC. As to the method: as §1, §2, §3, §4, §5, §6, §7, §8, §9, §10
Assay [10] deals with Aspergillus fumigatus ATCC 13073. Description: Broth microdilution MEC. Conditions: CLSI broth microdilution, microscopy, duplicate. As to the method: as §1, §2, §3, §4, §5, §6, §7, §8, §9, §10
For assay [11], the system named is Aspergillus fumigatus ATCC204305. Description: Broth microdilution MEC. Conditions: CLSI broth microdilution, microscopy, duplicate. As to the method:
as §1, §2, §3, §4, §5, §6, §7, §8, §9, §10

Assay [12] relates to Trichophyton rubrum ATCC 10218. In words: Broth microdilution MEC. Conditions: CLSI broth microdilution, microscopy, duplicate. As for the experimental part:
as §1, §2, §3, §4, §5, §6, §7, §8, §9, §10

≈ marks a conversion by molar mass, not a printed value.

Turning to `C[C@@H]1[C@H](O)[C@@H](C)/C=C/C=C/C=C/C=C/C=C/C=C/C=C/[C@H](O[C@@H]2O[C@H](C)[C@@H](O)[C@H](N)[C@@H]2O)C[C@@H]2O[C@](O)(C[C@@H](O)C[C@@H](O)[C@H](O)CC[C@@H](O)C[C@@H](O)CC(=O)O[C@H]1C)C[C@H](O)[C@H]2C(=O)O` [Amphotericin B], the MIC in [1] was determined as 0.125 µg/mL (≈ 0.135 µM); in assay [2], 0.25 µg/mL (≈ 0.271 µM); in [3], 0.125 µg/mL (≈ 0.135 µM); in assay [4] it was 0.125 µg/mL (≈ 0.135 µM); in [5], 0.25 µg/mL (≈ 0.271 µM); in assay [6] it was 0.125 µg/mL (≈ 0.135 µM). Further, the MIC was found to be 0.25 µg/mL (≈ 0.271 µM) in assay [7], 0.25 µg/mL (≈ 0.271 µM) in [8] and 1 µg/mL (≈ 1.08 µM) in assay [9]. The MEC in assay [10] was found to be 0.25 µg/mL; in [11], 0.5 µg/mL; in assay [12], 0.125 µg/mL.

For the origin of these results see paper PMC8067632, “Assessment and Development of the Antifungal Agent Caspofungin for Aerosolized Pulmonary Delivery” (Pharmaceutics, 2021).
